What was measured:
Test in all cases: relative viability (nuclei count vs DMSO), 5 days (fraction); higher = more cells survive
[1] = compound: Cc1ccc(-n2nc(C(C)(C)C)cc2NC(=O)Nc2ccc(OCCN3CCOCC3)c3ccccc23)cc1 [Doramapimod] + CC(=O)Nc1cccc(-n2c(=O)n(C3CC3)c(=O)c3c(Nc4ccc(I)cc4F)n(C)c(=O)c(C)c32)c1 [Trametinib] (partner 0.02 µM)
How it was run: (§1)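 One day after seeding in 1536-well plates, lung cancer cell lines were dosed by pin tool. Dosing was either single-drug or a fixed anchor-drug dose plus five library-drug doses (not always all listed) in √10 steps. After 5 days, nuclei were stained in one fix-and-stain step and counted on 4× images, and relative viability is the nuclei count of treated wells over that of vehicle wells, given as the median of duplicate plates.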

[2] = compound: Cc1ccc(-n2nc(C(C)(C)C)cc2NC(=O)Nc2ccc(OCCN3CCOCC3)c3ccccc23)cc1 [Doramapimod] + C[C@]1(O)C[C@@H](c2nc(-c3ccc4ccc(-c5ccccc5)nc4c3)c3c(N)nccn32)C1 [Linsitinib] (partner 1 µM)
How it was run: as §1

[3] = compound: Cc1ccc(-n2nc(C(C)(C)C)cc2NC(=O)Nc2ccc(OCCN3CCOCC3)c3ccccc23)cc1 [Doramapimod] + Cc1nc(NC(=O)N2CCC[C@H]2C(N)=O)sc1-c1ccnc(C(C)(C)C(F)(F)F)c1 [Alpelisib] (partner 2 µM)
How it was run: as §1

[4] = compound: Cn1c(Nc2ccc(C(F)(F)F)cc2)nc2cc(Oc3ccnc(-c4ncc(C(F)(F)F)[nH]4)c3)ccc21 [RAF265] + Cc1cc(Nc2cc(N3CCN(C)CC3)nc(Sc3ccc(NC(=O)C4CC4)cc3)n2)n[nH]1 [Tozasertib] (partner 0.1 µM)
How it was run: as §1

Cell Line: UMC-11
- relative viability ([1]; first compound 0.02 µM): 0.689
- relative viability ([1]; first compound 0.06325 µM): 0.638
- relative viability ([1]; first compound 0.2 µM): 0.621
- relative viability ([1]; first compound 0.6325 µM): 0.463
- relative viability ([1]; first compound 2 µM): 0.539
- relative viability ([2]; first compound 0.02 µM): 0.946
- relative viability ([2]; first compound 0.06325 µM): 0.992
- relative viability ([2]; first compound 0.2 µM): 1.03
- relative viability ([2]; first compound 0.6325 µM): 1
- relative viability ([2]; first compound 2 µM): 0.718
- relative viability ([3]; first compound 0.02 µM): 1
- relative viability ([3]; first compound 0.06325 µM): 1.03
- relative viability ([3]; first compound 0.2 µM): 0.891
- relative viability ([3]; first compound 0.6325 µM): 0.989
- relative viability ([3]; first compound 2 µM): 0.876
- relative viability ([4]; first compound 0.01 µM): 0.191
- relative viability ([4]; first compound 0.03162 µM): 0.212
- relative viability ([4]; first compound 0.1 µM): 0.201
- relative viability ([4]; first compound 0.3162 µM): 0.19
- relative viability ([4]; first compound 1 µM): 0.174
